Data: US10149887B2, “Peptides and peptidomimetics in combination with t cell activating and/or checkpoint inhibiting agents for cancer treatment” (CanBas Co., Ltd., priority 2015, dated 2018)
Read-outs that look alike come from different tables or passages of the source. Square brackets hold non-standard residues; d marks the D form. Ends that are not written are not given here. Peptide text beside a SMILES is read from it. Phe(F5) = N[C@@H](Cc1c(F)c(F)c(F)c(F)c1F)C(=O)O; dPhe(F5) = N[C@H](Cc1c(F)c(F)c(F)c(F)c1F)C(=O)O; dBpa = N[C@H](Cc1ccc(C(=O)c2ccccc2)cc1)C(=O)O; Cha = N[C@@H](CC1CCCCC1)C(=O)O; dCha = N[C@H](CC1CCCCC1)C(=O)O; Aun = NCCCCCCCCCCC(=O)O

Key:
Jurkat cells [1] = test: G2 checkpoint abrogation, flow cytometry of bleomycin treated Jurkat cells; format: cell-based, human; conditions: Jurkat cells with bleomycin 40 μg/ml
Protocol: Flow cytometry analysis of G2 checkpoint abrogation was performed using human leukemia derived Jurkat cell line. In brief, cultured cells were treated with various doses of peptide/peptidomimetic and 40 μg/ml bleomycine for 24 hr. The DNA of the cells was stained with propidium iodide and analyzed by flow cytometry.
The G2 checkpoint abrogating activity of various arginine rich sequences at different doses on cells treated with bleomycine was studied. Briefly, peptides were added to culture medium of Jurkat cells with bleomycin (40 μg/ml) at 0.2 μg/ml, 0.39 μg/ml, 0.78 μg/ml, 1.56 μg/ml, 3.125 μg/ml, 6.25 μg/ml, 12.5 μg/ml, 25 μg/ml and 50 μg/ml. Cells were subsequently harvested after 24 hours, stained with Krishan's solution, and analyzed with flow cytometry as previously described.

Jurkat cells [2] = test: Side effect of peptide used alone: Jurkat cell cycle disturbance (flow cytometry); format: cell-based
Protocol: Cell-cycle analysis The cell cycle status of the cells treated with bleomycin or adriamcin were analyzed by flow cytometry as described by Kawabe (1997) Nature 385:454-458. In brief, two million cells were re-suspended and incubated in 200 μl Krishan's solution (0.1% Sodium citrate, 50 μg/ml PI, 20 μg/ml RNase A and 0.5% NP-40) for 1 hr at 4° C. and analyzed by a flow cytometry, FACScan™ (Beckton Dickinson, Mountain View, Calif.) with the program CELLQuest™ (Beckton Dickinson).
(§1) The “Appearance of side effect when used alone” indicates the peptide/peptidomimetic dose that produced Jurkat cell cycle disturbance, i.e., the appearance of significant amounts of SubG1 cells (dead cells) or cells in which the DNA content of each varies more than usual. […] The “G2 abrogating dose” indicates the peptide/peptidomimetic dose with 40 μg/ml bleomycine that produced detectable G2 checkpoint abrogation activity following treatment for 24 hours. The “Appearance of side effect when used with colchicine” indicates the peptide/peptidomimetic dose with 5 μg/ml colchicine that produced Jurkat cell cycle disturbance following treatment for 24 hours.

Jurkat cells [3] = test: M phase checkpoint abrogation / non specific toxicity, colchicine treated Jurkat cells; format: cell-based; conditions: dose with 5 μg/ml colchicine that produced Jurkat cell cycle disturbance, 24 hours
Protocol: Flow cytometry analysis of M phase checkpoint abrogation by the compounds was performed using human T cell leukemia Jurkat cell line treated with colchicine (5 μg/ml or 0.5 μg/ml) and various doses of peptide/peptidomimetics for 24 hr (FIG. 12). The DNA of the cells was stained and analyzed by flow cytometry as described above.
as §1
A comparison between G2 checkpoint abrogating activity and non specific toxicity (M checkpoint abrogation) by CB501 was performed. In brief, Jurkat cells were treated with 40 μg/ml bleomycin or 0.5 μg/ml colchicine for G2 checkpoint abrogating activity and non specific toxicity, respectively. The DNA amount in each of the treated cells was analyzed by flow cytometry, as previously described.

[4] = dose that produced Jurkat cell cycle disturbance, peptide alone

Compound | Appearance of side effect when used alone (Jurkat cells [2]) | Appearance of side effect when used alone (Jurkat cells [2]; [4]) | Appearance of side effect when used with Colchicine (Jurkat cells [3]) | also measured
(d-Arg)(d-Arg)(d-Arg)(d-Bpa)(d-Arg)(d-Trp)(d-Arg)(d-Phe-2,3,4,5,6-F)(d-Cha) ([dR][dR][dR][dBpa][dR][dW][dR][dPhe(F5)][dCha]) [CBP701] |  |  |  | G2 checkpoint abrogating activity (in words) (Jurkat cells [1]): retain G2 checkpoint abrogating activity comparable to other peptides having significant G2 checkpoint abrogating activity
(d-Arg)(d-Arg)(d-Arg)(d-Arg)(d-Bpa)(d-Arg)(d-Trp)(d-Arg)(d-Phe-2,3,4,5,6-F)(d-Cha) ([dR][dR][dR][dR][dBpa][dR][dW][dR][dPhe(F5)][dCha]) [CBP702] |  |  |  | G2 checkpoint abrogating activity (in words) (Jurkat cells [1]): retain G2 checkpoint abrogating activity comparable to other peptides having significant G2 checkpoint abrogating activity
N[C@@H](Cc1ccc(O)cc1)C(=O)NCCCCCCCCCCC(=O)N[C@H](Cc1c(F)c(F)c(F)c(F)c1F)C(=O)N[C@H](CC1CCCCC1)C(=O)O [CBP462, (1-Tyr)(1-aminoundecanoic acid)(d-Phe-2,3,4,5,6-F)(d-Cha)] (H-Y[Aun][dPhe(F5)][dCha]-OH; N-terminus and C-terminus assumed) | >50 µM |  |  | 
N=C(N)NCCC[C@@H](NC(=O)[C@@H](CCCCN)NC(=O)[C@@H](CCCCN)NC(=O)[C@@H](CCCNC(=N)N)NC(=O)[C@@H](CCCNC(=N)N)NC(=O)[C@@H](CCC(N)=O)NC(=O)[C@@H](CCCNC(=N)N)NC(=O)[C@@H](CCCNC(=N)N)NC(=O)[C@@H](CCCNC(=N)N)NC(=O)[C@@H](CC1CCCCC1)NC(=O)[C@@H](Cc1c(F)c(F)c(F)c(F)c1F)NC(=O)CCCCCCCCCCN)C(=O)NCC(=O)N[C@H](Cc1ccc(O)cc1)C(=O)O [CBP463, (1-aminoundecanoic acid)(d-Phe-2,3,4,5,6-F)(d-Cha)(d-Arg)(d-Arg)(d-Arg)(d-Gln)(d-Arg)(d-Arg)(d-Lys)(d-Lys)(d-Arg)(1-Gly)(d-Tyr)] (H-[Aun][dPhe(F5)][dCha][dR][dR][dR][dQ][dR][dR][dK][dK][dR]G[dY]-OH; N-terminus and C-terminus assumed) |  | >6.25 µM | >6.25 µM | 
N[C@H](Cc1c(F)c(F)c(F)c(F)c1F)C(=O)N[C@H](CC1CCCCC1)C(=O)O [CBP470, (d-Phe-2,3,4,5,6-F)(d-Cha)] (H-[dPhe(F5)]-[dCha]-OH; N-terminus and C-terminus assumed) | >50 µM |  |  | 
N=C(N)NCCC[C@H](NC(=O)CNC(=O)[C@@H](N)Cc1ccc(O)cc1)C(=O)N[C@@H](CCCCN)C(=O)N[C@@H](CCCCN)C(=O)N[C@@H](CCCNC(=N)N)C(=O)N[C@@H](CCCNC(=N)N)C(=O)N[C@@H](CCC(N)=O)C(=O)N[C@@H](CCCNC(=N)N)C(=O)N[C@@H](CCCNC(=N)N)C(=O)N[C@@H](CCCNC(=N)N)C(=O)N[C@@H](CC1CCCCC1)C(=O)N[C@@H](Cc1c(F)c(F)c(F)c(F)c1F)C(=O)NCCCCCCCCCCC(=O)N[C@@H](Cc1ccc(O)cc1)C(=O)N[C@@H](Cc1ccc(O)cc1)C(=O)O [CBP440, (1-Tyr)(1-Gly)(1-Arg)(1-Lys)(1-Lys)(1-Arg)(1-Arg)(1-Gln)(1-Arg)(1-Arg)(1-Arg)(1-Cha)(1-Phe-2,3,4,5,6-F)(1-aminoundecanoic acid)(1-Tyr)(1-Tyr)] |  | >12.5 µM | >3.125 µM | 
N=C(N)NCCC[C@H](NC(=O)[C@H](CCCNC(=N)N)NC(=O)[C@@H](N)CCCNC(=N)N)C(=O)N[C@@H](CC1CCCCC1)C(=O)N[C@@H](Cc1c(F)c(F)c(F)c(F)c1F)C(=O)N[C@@H](CCCNC(=N)N)C(=O)N[C@@H](CO)C(=O)N1CCC[C@H]1C(=O)N[C@@H](CO)C(=O)N[C@@H](Cc1ccc(O)cc1)C(=O)N[C@@H](Cc1ccc(O)cc1)C(=O)O [CBP430, (1-Arg)(1-Arg)(1-Arg)(1-Cha)(1-Phe-2,3,4,5,6-F)(1-Arg)(1-Ser)(1-Pro)(1-Ser)(1-Tyr)(1-Tyr)] (H-RRR[Cha][Phe(F5)]RSPSYY-OH; N-terminus and C-terminus assumed) | >50 µM |  |  | 
NCCCCCCCCCCC(=O)N[C@H](Cc1c(F)c(F)c(F)c(F)c1F)C(=O)N[C@H](CC1CCCCC1)C(=O)O [CBP464, (1-aminoundecanoic acid)(d-Phe-2,3,4,5,6-F)(d-Cha)] (H-[Aun]-[dPhe(F5)]-[dCha]-OH; N-terminus and C-terminus assumed) | >50 µM |  |  | 
N=C(N)NCCC[C@@H](NC(=O)[C@@H](CCCCN)NC(=O)[C@@H](CCCCN)NC(=O)[C@@H](CCCNC(=N)N)NC(=O)[C@@H](CCCNC(=N)N)NC(=O)[C@@H](CCC(N)=O)NC(=O)[C@@H](CCCNC(=N)N)NC(=O)[C@@H](CCCNC(=N)N)NC(=O)[C@@H](CCCNC(=N)N)NC(=O)[C@@H](CC1CCCCC1)NC(=O)[C@@H](Cc1c(F)c(F)c(F)c(F)c1F)NC(=O)CCCCCCCCCCNC(=O)[C@H](Cc1ccc(O)cc1)NC(=O)[C@@H](N)Cc1ccc(O)cc1)C(=O)NCC(=O)N[C@H](Cc1ccc(O)cc1)C(=O)O [CBP460, (1-Tyr)(1-Tyr)(1-aminoundecanoic acid)(d-Phe-2,3,4,5,6-F)(d-Cha)(d-Arg)(d-Arg)(d-Arg)(d-Gln)(d-Arg)(d-Arg)(d-Lys)(d-Lys)(d-Arg)(1-Gly)(d-Tyr)] (H-YY[Aun][dPhe(F5)][dCha][dR][dR][dR][dQ][dR][dR][dK][dK][dR]G[dY]-OH; N-terminus and C-terminus assumed) |  | >3.125 µM | >3.125 µM | 
N=C(N)NCCC[C@H](NC(=O)CNC(=O)[C@@H](N)Cc1ccc(O)cc1)C(=O)N[C@@H](CCCCN)C(=O)N[C@@H](CCCCN)C(=O)N[C@@H](CCCNC(=N)N)C(=O)N[C@@H](CCCNC(=N)N)C(=O)N[C@@H](CCC(N)=O)C(=O)N[C@@H](CCCNC(=N)N)C(=O)N[C@@H](CCCNC(=N)N)C(=O)N[C@@H](CCCNC(=N)N)C(=O)N[C@@H](CC1CCCCC1)C(=O)N[C@@H](Cc1c(F)c(F)c(F)c(F)c1F)C(=O)N[C@@H](CCCNC(=N)N)C(=O)N[C@@H](CO)C(=O)N1CCC[C@H]1C(=O)N[C@@H](CO)C(=O)N[C@@H](Cc1ccc(O)cc1)C(=O)O [CBP420, (1-Tyr)(1-Gly)(1-Arg)(1-Lys)(1-Lys)(1-Arg)(1-Arg)(1-Gln)(1-Arg)(1-Arg)(1-Arg)(1-Cha)(1-Phe-2,3,4,5,6-F)(1-Arg)(1-Ser)(1-Pro)(1-Ser)(1-Tyr)] |  | >50 µM | ≥50 µM | 
N=C(N)NCCC[C@@H](NC(=O)[C@@H](CCCCN)NC(=O)[C@@H](CCCCN)NC(=O)[C@@H](CCCNC(=N)N)NC(=O)[C@@H](CCCNC(=N)N)NC(=O)[C@@H](CCC(N)=O)NC(=O)[C@@H](CCCNC(=N)N)NC(=O)[C@@H](CCCNC(=N)N)NC(=O)[C@@H](CCCNC(=N)N)NC(=O)[C@@H](CC1CCCCC1)NC(=O)[C@@H](Cc1c(F)c(F)c(F)c(F)c1F)NC(=O)CCCCCCCCCCNC(=O)[C@@H](N)Cc1ccc(O)cc1)C(=O)NCC(=O)N[C@H](Cc1ccc(O)cc1)C(=O)O [CBP461, (1-Tyr)(1-aminoundecanoic acid)(d-Phe-2,3,4,5,6-F)(d-Cha)(d-Arg)(d-Arg)(d-Arg)(d-Gln)(d-Arg)(d-Arg)(d-Lys)(d-Lys)(d-Arg)(1-Gly)(d-Tyr)] (H-Y[Aun][dPhe(F5)][dCha][dR][dR][dR][dQ][dR][dR][dK][dK][dR]G[dY]-OH; N-terminus and C-terminus assumed) |  | >6.25 µM | >6.25 µM | 
N=C(N)NCCC[C@@H](NC(=O)[C@@H](CCCNC(=N)N)NC(=O)[C@@H](CCC(N)=O)NC(=O)[C@@H](CCCNC(=N)N)NC(=O)[C@@H](CCCNC(=N)N)NC(=O)[C@@H](CCCNC(=N)N)NC(=O)[C@@H](CC1CCCCC1)NC(=O)[C@@H](Cc1c(F)c(F)c(F)c(F)c1F)NC(=O)[C@@H](CO)NC(=O)[C@@H](Cc1c[nH]c2ccccc12)NC(=O)[C@@H](CO)NC(=O)[C@@H](CO)NC(=O)[C@H](N)Cc1ccc(O)cc1)C(=O)O [CBP481, (d-Tyr)(d-Ser)(d-Ser)(d-Trp)(d-Ser)(d-Phe-2,3,4,5,6-F)(d-Cha)(d-Arg)(d-Arg)(d-Arg)(d-Gln)(d-Arg)(d-Arg)] (H-[dY][dS][dS][dW][dS][dPhe(F5)][dCha][dR][dR][dR][dQ][dR][dR]-OH; N-terminus and C-terminus assumed) | >50 µM |  |  | 
N=C(N)NCCC[C@H](NC(=O)[C@H](CCCNC(=N)N)NC(=O)[C@H](CCCNC(=N)N)NC(=O)[C@H](CCC(N)=O)NC(=O)[C@H](CCCNC(=N)N)NC(=O)[C@@H](N)CCCNC(=N)N)C(=O)N[C@@H](CC1CCCCC1)C(=O)N[C@@H](Cc1c(F)c(F)c(F)c(F)c1F)C(=O)N[C@@H](CCCNC(=N)N)C(=O)N[C@@H](CO)C(=O)N1CCC[C@H]1C(=O)N[C@@H](CO)C(=O)N[C@@H](Cc1ccc(O)cc1)C(=O)N[C@@H](Cc1ccc(O)cc1)C(=O)O [CBP431, (1-Arg)(1-Arg)(1-Gln)(1-Arg)(1-Arg)(1-Arg)(1-Cha)(1-Phe-2,3,4,5,6-F)(1-Arg)(1-Ser)(1-Pro)(1-Ser)(1-Tyr)(1-Tyr)] (H-RRQRRR[Cha][Phe(F5)]RSPSYY-OH; N-terminus and C-terminus assumed) | >50 µM |  |  | 
